Source: patent US11534457B2, “Use of dextran sulfate” (priority 2017, dated 2022)
Marks after values point to notes of the source that are not given here.

Test system: severe traumatic brain injury (sTBI)
Assay: sTBI in rats, HPLC of free amino acids and amino group containing compounds in brain (Example 3)
Type: in vivo, Male Wistar rats
[1] = Acute phase 1: 15 mg/kg s.c. 30 min post-sTBI, sacrifice 2 days
[2] = Acute phase 2: 15 mg/kg s.c. 30 min post-sTBI, sacrifice 7 days
[3] = Chronic phase: 15 mg/kg s.c. 3 days post-sTBI, sacrifice 7 days

“low molecular weight dextran sulfate [LMW-DS]” was tested, and the “compounds of the methyl cycle (Met, L-Cystat, SAH)” value (15 mg/kg s.c.) was “significant beneficial effects”, the “sTBI-induced increase in brain glutamate (GLU)” value (15 mg/kg s.c. 30 min after sTBI) was “remarkable inhibition” and the “brain glutamate (excitotoxicity marker)” value (15 mg/kg s.c. injected 3 days after sTBI) was “no efficacy”. For the same substance, the “ALA, cerebral concentration” value [1] was 0.50 ± 0.12^a μmol/g (w.w.), the “ARG, cerebral concentration” value [1] was 0.13 ± 0.02^b,d μmol/g (w.w.) and the “ASN, cerebral concentration” value [1] was 0.12 ± 0.02^i μmol/g (w.w.). The “ASP, cerebral concentration” value [1] was 2.40 ± 0.56^d,i μmol/g (w.w.), the “CITR, cerebral concentration” value [1] was 0.018 ± 0.004 µmol/g (w.w.) and the “GABA, cerebral concentration” value [1] was 1.43 ± 0.25^a μmol/g (w.w.). The “GLN, cerebral concentration” value [1] was 4.78 ± 1.09^a μmol/g (w.w.), the “GLU, cerebral concentration” value [1] was 9.81 ± 1.66^i μmol/g (w.w.) and the “GLY, cerebral concentration” value [1] was 0.83 ± 0.25^a,c μmol/g (w.w.). The “HIS, cerebral concentration” value [1] was 0.068 ± 0.015^b μmol/g (w.w.), the “ILE, cerebral concentration” value [1] was 0.038 ± 0.007 µmol/g (w.w.) and the “L-Cystat, cerebral concentration” value [1] was 0.185 ± 0.031^b,c,i μmol/g (w.w.). The “LEU, cerebral concentration” value [1] was 0.021 ± 0.005^a,c μmol/g (w.w.), the “LYS, cerebral concentration” value [1] was 0.236 ± 0.057^b,d,h μmol/g (w.w.) and the “MET, cerebral concentration” value [1] was 0.016 ± 0.005^d,j μmol/g (w.w.). The “ORN, cerebral concentration” value [1] was 0.014 ± 0.007 µmol/g (w.w.), the “PHE, cerebral concentration” value [1] was 0.031 ± 0.011^b,d μmol/g (w.w.) and the “SAH, cerebral concentration” value [1] was 0.033 ± 0.008^b,c,j μmol/g (w.w.). The “SER, cerebral concentration” value [1] was 0.88 ± 0.25^a μmol/g (w.w.), the “TAU, cerebral concentration” value [1] was 4.86 ± 0.85^b μmol/g (w.w.) and the “THR, cerebral concentration” value [1] was 0.92 ± 0.29^a μmol/g (w.w.). For the same substance, the “TRP, cerebral concentration” value [1] was 0.030 ± 0.007^b,dg,i μmol/g (w.w.), the “TYR, cerebral concentration” value [1] was 0.15 ± 0.03 µmol/g (w.w.) and the “VAL, cerebral concentration” value [1] was 0.042 ± 0.011 µmol/g (w.w.). The “ALA, cerebral concentration” value [2] was 0.52 ± 0.24^a,e μmol/g (w.w.), the “ARG, cerebral concentration” value [2] was 0.16 ± 0.03 µmol/g (w.w.) and the “ASN, cerebral concentration” value [2] was 0.13 ± 0.03^i μmol/g (w.w.). The “ASP, cerebral concentration” value [2] was 2.94 ± 0.98^f,j μmol/g (w.w.), the “CITR, cerebral concentration” value [2] was 0.018 ± 0.008 µmol/g (w.w.) and the “GABA, cerebral concentration” value [2] was 1.60 ± 0.24^a μmol/g (w.w.). For the same substance, the “GLN, cerebral concentration” value [2] was 3.66 ± 0.41 µmol/g (w.w.), the “GLU, cerebral concentration” value [2] was 9.93 ± 1.56^e,i μmol/g (w.w.) and the “GLY, cerebral concentration” value [2] was 0.71 ± 0.16^f,i μmol/g (w.w.). For the same substance, the “HIS, cerebral concentration” value [2] was 0.055 ± 0.019 µmol/g (w.w.), the “ILE, cerebral concentration” value [2] was 0.048 ± 0.017^a μmol/g (w.w.) and the “L-Cystat, cerebral concentration” value [2] was 0.173 ± 0.038^b,f,i μmol/g (w.w.). For the same substance, the “LEU, cerebral concentration” value [2] was 0.018 ± 0.004 µmol/g (w.w.), the “LYS, cerebral concentration” value [2] was 0.32 ± 0.04^a,e,i μmol/g (w.w.) and the “MET, cerebral concentration” value [2] was 0.022 ± 0.006^b,e,i μmol/g (w.w.). For the same substance, the “ORN, cerebral concentration” value [2] was 0.011 ± 0.005 µmol/g (w.w.), the “PHE, cerebral concentration” value [2] was 0.028 ± 0.010 µmol/g (w.w.) and the “SAH, cerebral concentration” value [2] was 0.026 ± 0.010^f,i μmol/g (w.w.). The “SER, cerebral concentration” value [2] was 0.71 ± 0.28^b μmol/g (w.w.), the “TAU, cerebral concentration” value [2] was 3.80 ± 1.19 µmol/g (w.w.) and the “THR, cerebral concentration” value [2] was 0.66 ± 0.23 µmol/g (w.w.). The “TRP, cerebral concentration” value [2] was 0.015 ± 0.006 µmol/g (w.w.), the “TYR, cerebral concentration” value [2] was 0.172 ± 0.046^b,f μmol/g (w.w.) and the “VAL, cerebral concentration” value [2] was 0.057 ± 0.017 µmol/g (w.w.). The “ALA, cerebral concentration” value [3] was 0.57 ± 0.28^a,e μmol/g (w.w.), the “ARG, cerebral concentration” value [3] was 0.14 ± 0.02 µmol/g (w.w.) and the “ASN, cerebral concentration” value [3] was 0.18 ± 0.02^a μmol/g (w.w.). The “ASP, cerebral concentration” value [3] was 4.46 ± 0.70^a,f μmol/g (w.w.), the “CITR, cerebral concentration” value [3] was 0.020 ± 0.006 µmol/g (w.w.) and the “GABA, cerebral concentration” value [3] was 1.85 ± 0.65^a μmol/g (w.w.). The “GLN, cerebral concentration” value [3] was 3.98 ± 0.34 µmol/g (w.w.), the “GLU, cerebral concentration” value [3] was 13.58 ± 1.28^a μmol/g (w.w.) and the “GLY, cerebral concentration” value [3] was 1.05 ± 0.13^a,f μmol/g (w.w.). The “HIS, cerebral concentration” value [3] was 0.047 ± 0.021 µmol/g (w.w.), the “ILE, cerebral concentration” value [3] was 0.041 ± 0.016^b μmol/g (w.w.) and the “L-Cystat, cerebral concentration” value [3] was 0.26 ± 0.05^a,f μmol/g (w.w.). The “LEU, cerebral concentration” value [3] was 0.024 ± 0.032^b,f μmol/g (w.w.), the “LYS, cerebral concentration” value [3] was 0.179 ± 0.036 µmol/g (w.w.) and the “MET, cerebral concentration” value [3] was 0.009 ± 0.004^b μmol/g (w.w.). The “ORN, cerebral concentration” value [3] was 0.017 ± 0.009^a,e μmol/g (w.w.), the “PHE, cerebral concentration” value [3] was 0.033 ± 0.011^b μmol/g (w.w.) and the “SAH, cerebral concentration” value [3] was 0.050 ± 0.013^a μmol/g (w.w.). For the same substance, the “SER, cerebral concentration” value [3] was 0.93 ± 0.27^a,e μmol/g (w.w.), the “TAU, cerebral concentration” value [3] was 4.49 ± 0.43^a μmol/g (w.w.) and the “THR, cerebral concentration” value [3] was 0.75 ± 0.24^a,e μmol/g (w.w.). The “TRP, cerebral concentration” value [3] was 0.012 ± 0.007 µmol/g (w.w.), the “TYR, cerebral concentration” value [3] was 0.21 ± 0.05^f μmol/g (w.w.) and the “VAL, cerebral concentration” value [3] was 0.040 ± 0.016^b μmol/g (w.w.).
